Calls of active or inactive are those of the source. The rule behind the calls is not given here.
Key:
P388 [1] = assay: Antineoplastic activity against mouse P388 cells allografted in CDF1 mouse assessed as survival at 2 mg/kg qd for 9 days; assay type: functional, organism-based; design: dose 2 mg/kg
L1210 [2] = assay: Antineoplastic activity against mouse L1210 cells allografted in CDF1 mouse assessed as survival at 8 mg/kg qd for 9 days; assay type: functional, organism-based; design: dose 8 mg/kg
Colon 26 [3] = assay: Antineoplastic activity against mouse Colon 26 cells allografted in CDF1 mouse at 8 mg/kg qd for 9 days relative to control; assay type: functional
P388 [4] = assay: Antineoplastic activity against mouse P388 cells allografted in CDF1 mouse at 4 mg/kg qd for 9 days relative to control; assay type: functional
L1210 [5] = assay: Antineoplastic activity against mouse L1210 cells allografted in CDF1 mouse assessed as survival at 2 mg/kg qd for 9 days; assay type: functional, organism-based; design: dose 2 mg/kg
P388 [6] = assay: Antineoplastic activity against mouse P388 cells allografted in CDF1 mouse at 2 mg/kg qd for 9 days relative to control; assay type: functional
Colon 26 [7] = assay: Antineoplastic activity against mouse Colon 26 cells allografted in CDF1 mouse assessed as survival at 4 mg/kg qd for 9 days; assay type: functional, organism-based; design: dose 4 mg/kg
P388 [8] = assay: Antineoplastic activity against mouse P388 cells allografted in CDF1 mouse assessed as survival at 8 mg/kg qd for 9 days; assay type: functional, organism-based; design: dose 8 mg/kg
B16 [9] = assay: Antineoplastic activity against mouse B16 cells allografted in BDF1 mouse at 8 mg/kg qd for 9 days relative to control; assay type: functional
B16 [10] = assay: Antineoplastic activity against mouse B16 cells allografted in BDF1 mouse assessed as survival at 1 mg/kg qd for 9 days; assay type: functional, organism-based; design: dose 1 mg/kg
L1210 [11] = assay: Antineoplastic activity against mouse L1210 cells allografted in CDF1 mouse assessed as survival at 4 mg/kg qd for 9 days; assay type: functional, organism-based; design: dose 4 mg/kg
L1210 [12] = assay: Antineoplastic activity against mouse L1210 cells allografted in CDF1 mouse at 16 mg/kg qd for 9 days relative to control; assay type: functional
P388 [13] = assay: Antineoplastic activity against mouse P388 cells allografted in CDF1 mouse at 1 mg/kg qd for 9 days relative to control; assay type: functional
B16 [14] = assay: Antineoplastic activity against mouse B16 cells allografted in BDF1 mouse assessed as survival at 8 mg/kg qd for 9 days; assay type: functional, organism-based; design: dose 8 mg/kg
B16 [15] = assay: Antineoplastic activity against mouse B16 cells allografted in BDF1 mouse assessed as survival at 4 mg/kg qd for 9 days; assay type: functional, organism-based; design: dose 4 mg/kg
P388 [16] = assay: Antineoplastic activity against mouse P388 cells allografted in CDF1 mouse assessed as survival at 4 mg/kg qd for 9 days; assay type: functional, organism-based; design: dose 4 mg/kg
B16 [17] = assay: Antineoplastic activity against mouse B16 cells allografted in BDF1 mouse at 1 mg/kg qd for 9 days relative to control; assay type: functional
Colon 26 [18] = assay: Antineoplastic activity against mouse Colon 26 cells allografted in CDF1 mouse at 2 mg/kg qd for 9 days relative to control; assay type: functional
B16 [19] = assay: Antineoplastic activity against mouse B16 cells allografted in BDF1 mouse at 16 mg/kg qd for 9 days relative to control; assay type: functional
P388 [20] = assay: Antineoplastic activity against mouse P388 cells allografted in CDF1 mouse assessed as survival at 1 mg/kg qd for 9 days; assay type: functional, organism-based; design: dose 1 mg/kg
P388 [21] = assay: Antineoplastic activity against mouse P388 cells allografted in CDF1 mouse at 8 mg/kg qd for 9 days relative to control; assay type: functional
B16 [22] = assay: Antineoplastic activity against mouse B16 cells allografted in BDF1 mouse at 2 mg/kg qd for 9 days relative to control; assay type: functional
B16 [23] = assay: Antineoplastic activity against mouse B16 cells allografted in BDF1 mouse assessed as survival at 16 mg/kg qd for 9 days; assay type: functional, organism-based; design: dose 16 mg/kg
P388 [24] = assay: Antineoplastic activity against mouse P388 cells allografted in CDF1 mouse assessed as survival at 16 mg/kg qd for 9 days; assay type: functional, organism-based; design: dose 16 mg/kg
Colon 26 [25] = assay: Antineoplastic activity against mouse Colon 26 cells allografted in CDF1 mouse assessed as survival at 2 mg/kg qd for 9 days; assay type: functional, organism-based; design: dose 2 mg/kg
B16 [26] = assay: Antineoplastic activity against mouse B16 cells allografted in BDF1 mouse at 4 mg/kg qd for 9 days relative to control; assay type: functional
P388 [27] = assay: Antineoplastic activity against mouse P388 cells allografted in CDF1 mouse at 16 mg/kg qd for 9 days relative to control; assay type: functional
L1210 [28] = assay: Antineoplastic activity against mouse L1210 cells allografted in CDF1 mouse at 4 mg/kg qd for 9 days relative to control; assay type: functional
L1210 [29] = assay: Antineoplastic activity against mouse L1210 cells allografted in CDF1 mouse at 2 mg/kg qd for 9 days relative to control; assay type: functional
L1210 [30] = assay: Antineoplastic activity against mouse L1210 cells allografted in CDF1 mouse assessed as survival at 16 mg/kg qd for 9 days; assay type: functional, organism-based; design: dose 16 mg/kg
Colon 26 [31] = assay: Antineoplastic activity against mouse Colon 26 cells allografted in CDF1 mouse assessed as survival at 8 mg/kg qd for 9 days; assay type: functional, organism-based; design: dose 8 mg/kg
Colon 26 [32] = assay: Antineoplastic activity against mouse Colon 26 cells allografted in CDF1 mouse at 4 mg/kg qd for 9 days relative to control; assay type: functional
L1210 [33] = assay: Antineoplastic activity against mouse L1210 cells allografted in CDF1 mouse at 8 mg/kg qd for 9 days relative to control; assay type: functional
B16 [34] = assay: Antineoplastic activity against mouse B16 cells allografted in BDF1 mouse assessed as survival at 2 mg/kg qd for 9 days; assay type: functional, organism-based; design: dose 2 mg/kg

In the case of `O=C1c2ccccc2C(=O)c2c(NCCNCCO)ccc(NCCNCCO)c21` [AMETANTRONE], the Activity (P388 [1]) is reported as “Active”, the Activity (L1210 [2]) is reported as “Active” and the T/C (Colon 26 [3]) is reported as 201%. For the same molecule, the T/C (P388 [4]) was 219%, the Activity (L1210 [5]) was “Active” and the T/C (P388 [6]) was 200%. For the same molecule, the Activity (Colon 26 [7]) was “Active”, the Activity (P388 [8]) was “Active” and the T/C (B16 [9]) was 204%. The Activity (B16 [10]) was “Active”, the Activity (L1210 [11]) was “Active” and the T/C (L1210 [12]) was 234%. For the same molecule, the T/C (P388 [13]) was 155%, the Activity (B16 [14]) was “Active” and the Activity (B16 [15]) was “Active”. The Activity (P388 [16]) was “Active”, the T/C (B16 [17]) was 151% and the T/C (Colon 26 [18]) was 132%. For the same molecule, the T/C (B16 [19]) was 225%, the Activity (P388 [20]) was “Active” and the T/C (P388 [21]) was 254%. For the same molecule, the T/C (B16 [22]) was 172%, the Activity (B16 [23]) was “Active” and the Activity (P388 [24]) was “Active”. The Activity (Colon 26 [25]) was “Active”, the T/C (B16 [26]) was 194% and the T/C (P388 [27]) was 321%. The T/C (L1210 [28]) was 193%, the T/C (L1210 [29]) was 180% and the Activity (L1210 [30]) was “Active”. The Activity (Colon 26 [31]) was “Active”, the T/C (Colon 26 [32]) was 177% and the T/C (L1210 [33]) was 288%. For the same molecule, the Activity (B16 [34]) was “Active”.

From ChEMBL document CHEMBL3244053, “Structural modification study of bis(substituted aminoalkylamino)anthraquinones. An evaluation of the relationship of the [2-[(2-hydroxyethyl)amino]ethyl]amino side chain with antineoplastic activity” (1979)
